As a reminder, the IC50 is the midpoint of a concentration-inhibition curve.

Consider 21 compounds from patent publication US11254668B2, “Pyrazolo[1,5-A]pyrazin-4-yl and related derivatives” (Pfizer Inc., priority 2017, dated 2022).

SMILES strings stand for the structures.

What all share (format): biochemical
The target of experiment [1] is JAK3 (Homo sapiens (Human), UniProt P52333). Description: JAK Caliper Enzyme Assay at 1 mM ATP, JAK3. The procedure, abridged: (§1)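 Recombinant human kinase domains phosphorylate a fluorescent synthetic peptide at 1 mM ATP, room temperature, with enzyme and time tuned for 20-30% conversion; EDTA-stopped. Product/substrate separated by microfluidic mobility shift; percent effect versus DMSO and positive controls fitted to IC50 (nM).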

The target of experiment [2] is TYK2 (Homo sapiens (Human), UniProt P29597). Description: JAK Caliper Enzyme Assay at 1 mM ATP, TYK2. In a few lines: (§2)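 Mobility-shift microfluidic read-out: substrate and phosphopeptide peaks separated, % conversion = product/(product+substrate). Reaction used recombinant human kinase domain, synthetic peptide, 1 mM ATP, RT incubation to 20–30% turnover, quenched with EDTA. Percent effect versus DMSO and positive controls, plotted against concentration.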

Experiment [3] deals with JAK1 (Homo sapiens (Human), UniProt P23458). Description: JAK Caliper Enzyme Assay at 1 mM ATP, JAK1. In a few lines: as §1
For experiment [4], the target named is JAK2 (Homo sapiens (Human), UniProt O60674). Description: JAK Caliper Enzyme Assay at 1 mM ATP, JAK2. In a few lines:
as §2

JAK2, sequence (O60674 849-1124): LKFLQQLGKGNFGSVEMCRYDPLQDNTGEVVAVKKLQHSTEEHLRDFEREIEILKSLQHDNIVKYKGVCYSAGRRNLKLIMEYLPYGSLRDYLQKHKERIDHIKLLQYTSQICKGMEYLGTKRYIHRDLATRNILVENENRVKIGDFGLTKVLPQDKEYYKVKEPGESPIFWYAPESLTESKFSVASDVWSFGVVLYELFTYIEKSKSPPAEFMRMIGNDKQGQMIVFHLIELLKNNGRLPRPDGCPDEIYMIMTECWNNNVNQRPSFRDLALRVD
JAK3, sequence (P52333 822-1111): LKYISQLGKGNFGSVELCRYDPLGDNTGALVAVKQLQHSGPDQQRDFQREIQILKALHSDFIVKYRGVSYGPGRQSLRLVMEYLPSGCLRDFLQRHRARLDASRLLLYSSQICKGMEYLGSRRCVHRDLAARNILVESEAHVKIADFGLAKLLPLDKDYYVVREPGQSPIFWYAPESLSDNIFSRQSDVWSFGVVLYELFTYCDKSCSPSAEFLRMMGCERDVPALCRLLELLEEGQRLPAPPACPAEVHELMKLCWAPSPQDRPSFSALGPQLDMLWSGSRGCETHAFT
TYK2, sequence (P29597 897-1176): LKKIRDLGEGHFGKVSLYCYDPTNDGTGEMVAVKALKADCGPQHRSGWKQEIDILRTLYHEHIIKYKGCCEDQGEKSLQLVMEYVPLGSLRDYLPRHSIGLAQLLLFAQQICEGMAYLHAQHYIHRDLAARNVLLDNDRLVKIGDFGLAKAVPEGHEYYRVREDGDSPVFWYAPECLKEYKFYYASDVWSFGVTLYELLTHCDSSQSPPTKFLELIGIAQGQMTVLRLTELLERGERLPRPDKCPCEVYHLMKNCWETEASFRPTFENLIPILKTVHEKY
JAK1, sequence (P23458 875-1153): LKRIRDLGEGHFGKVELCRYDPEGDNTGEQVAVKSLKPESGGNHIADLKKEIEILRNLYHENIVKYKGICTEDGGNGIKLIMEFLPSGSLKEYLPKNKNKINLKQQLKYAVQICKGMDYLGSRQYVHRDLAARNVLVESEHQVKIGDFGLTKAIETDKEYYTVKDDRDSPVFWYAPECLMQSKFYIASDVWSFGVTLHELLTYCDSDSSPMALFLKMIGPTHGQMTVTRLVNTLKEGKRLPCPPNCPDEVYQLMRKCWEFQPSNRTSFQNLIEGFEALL

As to `Cc1ncc(-c2cc3ncccc3c(-c3ccn(C4(CC#N)CN(S(C)(=O)=O)C4)n3)n2)cc1O` [Example 222, [3-{3-[7-(5-hydroxy-6-methylpyridin-3-yl)-1,6-naphthyridin-5-yl]-1H-pyrazol-1-yl}-1-(methylsulfonyl)azetidin-3-yl]acetonitrile], the IC50 in experiment [1] is over 10000 nM; in experiment [2], 57 nM; in experiment [3] it was over 10000 nM; in experiment [4], 1300 nM.

Regarding `N#CCC1(n2ccc(-c3nc(-c4ccc(O)c(C(N)=O)n4)cc4ncccc34)n2)CC(C#N)C1` (stereo not drawn) [Example 226, 6-(5-{1-[trans-3-cyano-1-(cyanomethyl)cyclobutyl]-1H-pyrazol-3-yl}-1,6-naphthyridin-7-yl)-3-hydroxypyridine-2-carboxamide], the IC50 in experiment [1] is over 10000 nM; in experiment [2], 112 nM; in experiment [3], 3300 nM; in experiment [4], 929 nM.

For the compound `N#CC[C@]1(n2ccc(-c3nc(-c4ccc(O)c(C(N)=O)n4)cc4ncccc34)n2)C[C@H](C#N)C1` [Example 227, 6-(5-{1-[cis-3-cyano-1-(cyanomethyl)cyclobutyl]-1H-pyrazol-3-yl}-1,6-naphthyridin-7-yl)-3-hydroxypyridine-2-carboxamide], the half-inhibitory concentration (IC50) in experiment [1] is over 10000 nM; in experiment [2], 1180 nM; in experiment [3], over 10000 nM; in experiment [4], 9300 nM.

Take `CC(=O)Nc1cc(-c2cc3ncccc3c(-c3ccn(C4(CC#N)CN(S(C)(=O)=O)C4)n3)n2)cnc1C` [Example 228, N-[5-(5-{1-[3-(cyanomethyl)-1-(methylsulfonyl)azetidin-3-yl]-1H-pyrazol-3-yl}-1,6-naphthyridin-7-yl)-2-methylpyridin-3-yl]acetamide]: the IC50 in experiment [1] is over 10000 nM; in experiment [2] it was 704 nM; in experiment [3] it was 4350 nM; in experiment [4], 6630 nM.

Take `CS(=O)(=O)N1CC(CC#N)(n2ccc(-c3nc(-c4cnc(N)c(N)c4)cc4ncccc34)n2)C1` [Example 229, [3-{3-[7-(5,6-diaminopyridin-3-yl)-1,6-naphthyridin-5-yl]-1H-pyrazol-1-yl}-1-(methylsulfonyl)azetidin-3-yl]acetonitrile]: the IC50 is over 10000 nM in experiment [1], 81 nM in experiment [2], 2460 nM in experiment [3] and 1000 nM in experiment [4].

As for `CS(=O)(=O)N1CC(CC#N)(n2ccc(-c3nc(-c4ccc(N)nc4N)cc4ncccc34)n2)C1` [Example 230, [3-{3-[7-(2,6-diaminopyridin-3-yl)-1,6-naphthyridin-5-yl]-1H-pyrazol-1-yl}-1-(methylsulfonyl)azetidin-3-yl]acetonitrile], the concentration for half-maximal inhibition (IC50) in experiment [1] is over 10000 nM; in experiment [2], 33 nM; in experiment [3], 1120 nM; in experiment [4], 451 nM.

On to `CC(=O)Nc1cc(-c2cc3ncccc3c(-c3ccn(C4(CC#N)CN(S(C)(=O)=O)C4)n3)n2)cnc1NC(C)=O` [Example 231, N,N′-[5-(5-{1-[3-(cyanomethyl)-1-(methylsulfonyl)azetidin-3-yl]-1H-pyrazol-3-yl}-1,6-naphthyridin-7-yl)pyridine-2,3-diyl]diacetamide], for which the IC50 in experiment [1] was over 10000 nM; in experiment [2], 948 nM; in experiment [3], 5760 nM; in experiment [4], 7900 nM.

Consider `N#CCC1(n2ccc(-c3nc(-c4cnc5c(c4)CCC5)cc4ncccc34)n2)CN(CC(F)(F)F)C1` [Example 232], for which the IC50 in experiment [1] is over 10000 nM; in experiment [2], 1510 nM; in experiment [3], over 10000 nM; in experiment [4], 5820 nM.

On to `N#CCC1(n2ccc(-c3nc(-c4cncnc4)cc4ncccc34)n2)CN(CC(F)(F)F)C1` [Example 234, [3-{3-[7-(pyrimidin-5-yl)-1,6-naphthyridin-5-yl]-1H-pyrazol-1-yl}-1-(2,2,2-trifluoroethyl)azetidin-3-yl]acetonitrile], for which the IC50 was over 10000 nM in experiment [1], 2660 nM in experiment [2], over 10000 nM in experiment [3] and over 10000 nM in experiment [4].

Regarding `CS(=O)(=O)N1CC(CC#N)(n2ccc(-c3nc(-c4cncnc4)cc4ncccc34)n2)C1` [Example 235, [1-(methylsulfonyl)-3-{3-[7-(pyrimidin-5-yl)-1,6-naphthyridin-5-yl]-1H-pyrazol-1-yl}azetidin-3-yl]acetonitrile], the IC50 is over 10000 nM in experiment [1], 5510 nM in experiment [2], over 10000 nM in experiment [3] and over 10000 nM in experiment [4].

Take `COc1ncc(-c2cc3ncccc3c(-c3ccn(C4(CC#N)CN(CC(F)(F)F)C4)n3)n2)cn1` [Example 236, [3-{3-[7-(2-methoxypyrimidin-5-yl)-1,6-naphthyridin-5-yl]-1H-pyrazol-1-yl}-1-(2,2,2-trifluoroethyl)azetidin-3-yl]acetonitrile]: the IC50 in experiment [1] was over 10000 nM; in experiment [2], 2360 nM; in experiment [3], over 10000 nM; in experiment [4] it was over 10000 nM.

Regarding `COc1ncc(-c2cc3ncccc3c(-c3ccn(C4(CC#N)CN(S(C)(=O)=O)C4)n3)n2)cn1` [Example 237, [3-{3-[7-(2-methoxypyrimidin-5-yl)-1,6-naphthyridin-5-yl]-1H-pyrazol-1-yl}-1-(methylsulfonyl)azetidin-3-yl]acetonitrile], the IC50 in experiment [1] was over 10000 nM; in experiment [2] it was 2040 nM; in experiment [3], over 10000 nM; in experiment [4], over 10000 nM.

As for `CS(=O)(=O)N1CC(CC#N)(n2ccc(-c3nc(-c4cnc(N)nc4)cc4ncccc34)n2)C1` [Example 238, [3-{3-[7-(2-aminopyrimidin-5-yl)-1,6-naphthyridin-5-yl]-1H-pyrazol-1-yl}-1-(methylsulfonyl)azetidin-3-yl]acetonitrile], the IC50 in experiment [1] was over 10000 nM; in experiment [2], 1920 nM; in experiment [3] it was over 10000 nM; in experiment [4], 8970 nM.

For the compound `N#CC[C@]1(n2ccc(-c3nc(-c4cnnc(N)c4)cc4ncccc34)n2)C[C@H](C#N)C1` [Example 239, trans-3-{3-[7-(6-aminopyridazin-4-yl)-1,6-naphthyridin-5-yl]-1H-pyrazol-1-yl}-3-(cyanomethyl)cyclobutanecarbonitrile], the IC50 in experiment [1] is over 10000 nM; in experiment [2], 96 nM; in experiment [3] it was 3720 nM; in experiment [4], 1120 nM.

On to `N#CC[C@]1(n2ccc(-c3nc(-c4cnnc(N)c4)cc4ncccc34)n2)C[C@@H](C#N)C1` [Example 240, cis-3-{3-[7-(6-aminopyridazin-4-yl)-1,6-naphthyridin-5-yl]-1H-pyrazol-1-yl}-3-(cyanomethyl)cyclobutanecarbonitrile], for which the IC50 in experiment [1] was over 10000 nM; in experiment [2], 48 nM; in experiment [3] it was 1280 nM; in experiment [4] it was 448 nM.

As for `N#CC[C@]1(n2ccc(-c3nc(-c4cc(N)cnn4)cc4ncccc34)n2)C[C@H](C#N)C1` [Example 241, trans-3-{3-[7-(5-aminopyridazin-3-yl)-1,6-naphthyridin-5-yl]-1H-pyrazol-1-yl}-3-(cyanomethyl)cyclobutanecarbonitrile], the IC50 in experiment [1] is over 10000 nM; in experiment [2], 3390 nM; in experiment [3] it was over 10000 nM; in experiment [4], over 10000 nM.

As for `N#CC[C@]1(n2ccc(-c3nc(-c4cc(N)cnn4)cc4ncccc34)n2)C[C@@H](C#N)C1` [Example 242, cis-3-{3-[7-(5-aminopyridazin-3-yl)-1,6-naphthyridin-5-yl]-1H-pyrazol-1-yl}-3-(cyanomethyl)cyclobutanecarbonitrile], the half-maximal inhibitory concentration (IC50) in experiment [1] was over 10000 nM; in experiment [2], 503 nM; in experiment [3] it was over 10000 nM; in experiment [4] it was 3770 nM.

As to `N#CC[C@]1(n2ccc(-c3nc(-c4ccnc(C(N)=O)n4)cc4ncccc34)n2)C[C@H](C#N)C1` [Example 243, 4-(5-{1-[trans-3-cyano-1-(cyanomethyl)cyclobutyl]-1H-pyrazol-3-yl}-1,6-naphthyridin-7-yl)pyrimidine-2-carboxamide], the IC50 in experiment [1] was over 10000 nM; in experiment [2] it was 48 nM; in experiment [3], 2220 nM; in experiment [4], 726 nM.

On to `N#CC[C@]1(n2ccc(-c3nc(-c4ccnc(C(N)=O)n4)cc4ncccc34)n2)C[C@H](C#N)C1` [Example 244, 4-(5-{1-[cis-3-cyano-1-(cyanomethyl)cyclobutyl]-1H-pyrazol-3-yl}-1,6-naphthyridin-7-yl)pyrimidine-2-carboxamide], for which the IC50 is over 10000 nM in experiment [1], 424 nM in experiment [2], over 10000 nM in experiment [3] and over 10000 nM in experiment [4].

For `CS(=O)(=O)N1CC(CC#N)(n2ccc(-c3nc(-c4ccc(=O)[nH]c4)cc4ncccc34)n2)C1` [Example 245, [1-(methylsulfonyl)-3-{3-[7-(6-oxo-1,6-dihydropyridin-3-yl)-1,6-naphthyridin-5-yl]-1H-pyrazol-1-yl}azetidin-3-yl]acetonitrile], the IC50 is over 10000 nM in experiment [1], 11 nM in experiment [2], 220 nM in experiment [3] and 131 nM in experiment [4].

Turning to `N#CCC1(n2ccc(-c3nc(-c4ccc(=O)[nH]c4)cc4ncccc34)n2)CN(S(=O)(=O)C2CC2)C1` [Example 246, [1-(cyclopropylsulfonyl)-3-{3-[7-(6-oxo-1,6-dihydropyridin-3-yl)-1,6-naphthyridin-5-yl]-1H-pyrazol-1-yl}azetidin-3-yl]acetonitrile], the IC50 in experiment [1] was over 10000 nM; in experiment [2], 32 nM; in experiment [3] it was 554 nM; in experiment [4], 971 nM.
